Experimental data as given in US8133971B2, “Polypeptide specifically bound to phosphatidylserine and the use thereof” (Kyungpook National University Industry Academic Cooperation …, priority 2008, dated 2012).
Ends that are not written are not given here. fluorescein = fluorescein bonded at the N-terminus

Legend:
[1] = test system: apoptotic cells (H460 cell); assay: competitive inhibition of phage binding to apoptotic cells (phage titer); format: cell-based, Human; conditions: for phage titer of selected phage bound to apoptotic cells after peptide treatment: peptide 50 μM, H460, versus un-treated group
Method: The specificity of the phage to phosphatidylserine bound to apoptotic cells is tested by competitive inhibition with annexin V.
A pre-cultured group, which is cultured for 30 minutes with annexin V (10 μM) before the apoptotic cells (H460 cell) are cultured with the phage, is used for the test. And a control group, which is not pre-cultured with annexin V, is used for the test. Phages are bound and eluted as described in the embodiment 4-1 and then phage titer is measured.
And, phage titer of a group treated with the synthesized peptide (50 μM) according to CLSYYPSYC (SEQ ID NO: 1) of amino acid sequence, which is shown in the selected phage clone, is measured. Phage titer of an un-treated group and a group treated with the peptide of the control group are measured. Phages are bound and eluted as described in the embodiment 4-1 and then phage titer is measured.

[2] = test system: H460 cell; assay: FACS analysis of labeled peptide binding to normal or apoptotic cells; format: cell-based, Human; conditions: fluorescein at N-end, 2.5 μM, 15 minutes; for binding of labeled peptide to apoptotic cells by FACS: apoptotic H460 cell
Method: Apoptotic cells are treated with a labeled peptide of the present embodiment and then FACS analyses are carried out to confirm that whether the peptide of the present embodiment is bound to phosphatidylserine of apoptotic cells or not.
The peptide used in the present embodiment has a form in which fluorescein is bonded at N-end. The peptide is synthesized according to the standard Fmoc method and separated by HPLC (Peptron Co.) before use.
The final concentration of the peptide of the present embodiment or the control group peptide (amino acid sequence: NSSVDK (SEQ ID NO: 8)) is 2.5 μM and the solution is dissolved in Hepes buffer (pH7.4, Hepes 10 mM, […] 138 mM, and with/without CaCl2). The solution is mixed with normal H460 cell or dead H460 cell (1×10^5 cells/mL) to become 0.5 mL of final volume and then cultured for 15 minutes at room temperature. The cells are washed with a binding buffer and then FACS analyses are immediately carried out (FACSScan, Becton Dickinson, San Jose, Calif.).

[3] = test system: H460 cells; assay: fluorescence and confocal microscopy of peptide and annexin V marking of cells; format: cell-based, Human; conditions: for marking of apoptotic cells (fluorescent microscope) / marking of normal cells (fluorescent microscope): fluorescein peptide 10 μM, annexin V Alexa fluor 594; for marking of normal cells (fluorescent microscope): normal H460 cells
Method: H460 cells are cultured in a chamber slide (Nalgen Nunc Int.) and apoptosis is induced as described in embodiment 4-1. The apoptotic cells are washed with PBS and then the cells are cultured in tyrodes buffer in the presence of a peptide marked with 10 μM of fluorescein for 30 minutes at room temperature. After that, the cells are cultured with annexin V Alexa fluor 594 (Molecular Probes) for 15 minutes at room temperature. The cells are washed with PBS and then fixed with 4% of paraformaldehyde for 5 minutes. After that, the cells are counterstained by 4′,6-diamidino-2-phenylindole (DAPI) and then the cells are treated with a mounting solution to take a picture by fluorescent microscope (Zeiss, Oberkochen, Germany).
Also as shown in the FIG. 4C, the image is taken by a laser confocal microscope (LEICA).

[4] = test system: H460 tumor xenografts; assay: in vivo homing and in vivo/ex vivo visualization in tumor xenografts; design: species or system BALB/c male nude mouse; conditions: for ex vivo fluorescein signal from tumor tissue: tumor removed 2 hours after peptide injection; for in vivo fluorescein signal from tumor tissue: 50 μM through tail vein, after 2 hours
Method: All of animal experiments are carried out in accordance with guidelines of the kyoungpook national university. For tumor xenografts, H460 cells (1×10^7 cells) floated on RPMI medium containing 10% FBS are injected hypodermically at a right shoulder of a 6 week old BALB/c male nude mouse (SLC, Inc.). Then, tumor cells are allowed to grow about 0.5 to 1.0 cm for 3 weeks.
The mice having tumor cells are divided into a camptothecin treated group and untreated group, and then the camptothecin treated group is taken a dose of camptothecin (Sigma, 10 mg/kg) at 24 hours before peptide treatment. After that, fluorescein-labeled peptide (fluorescein-labeled CLSYYPSYC (SEQ ID NO: 1)) (50 μM) of the present embodiment or a control group peptide (50 μM) is injected through tail vein under isoflurane anesthesia. The peptide induced to the tumor cells are checked at every hour by the optical visualization system (ART Advanced Research Technologies Inc., Montreal, Canada) using […]/GFP filter after peptide injection. To each used mouse, baseline fluorescence of fluorescein is measured before peptide injection. The obtained image is treated and normalized by eXplore Optix optiView Software. After 2 hours of the peptide injection, the tumor is removed from the mouse and then ex vivo visualization of the tumor cell is carried out. The image is treated as above.

[5] = test system: H460 tumor xenografts; assay: histological test of in vivo homing (CD31 staining, TUNEL, organs); conditions: for peptide observed in tumor region stained by CD31: fluorescence microscope
Source text: For a histological test, the above mouse undergoes anesthesia and then undergoes laparotomy. PBS and 4% paraformaldehyde (PFA) fixing agent is used for perfusion, and then tumor tissue and organs are removed. After cryosection of each tissue, the peptide of the present embodiment is observed by fluorescence microscope. Tumor vessels are stained by immunohistochemistry using an antibody (BD Pharmigen) to the mouse CD31 and alexa 568 labeled secondary antibody. Cell death in a tumor tissue is verified by TUNEL ([…] terminal deoxynucleotidyl transferase-mediated dUTP nick-end labeling) analyses according to the manufacturer's manual (Chemicon Int. USA).

[6] = phosphatidylserine binding of phage clone in the presence of annexin V (phage ELISA); conditions: annexin V protein 10 μM
Method: The phosphatidylserine binding specificity of the selected phage clone is tested by phosphatidylserine binding in the presence of annexin V.
In short, Immulon 1B microtiter plate is coated with phosphatidylcholine as described in the embodiment 1-2. Then, the plates are blocked with TBS medium containing 10 mg/mL of BSA for 1 hour at room temperature.
The selected phage clone is added to 100 μl of TBS buffer and then the mixture is added to the well coated with phosphatidylcholine. The well is gently shaken for 1 hour at room temperature (incubate). In a group in which annexin V is added, the above phage clone is cultured in the presence of annexin V protein (10 μM) and then 100 μl of TBS buffer is added to the phage clone. The mixture is added to the well coated with phosphatidylserine and then the well is gently shaken for 1 hour at room temperature. The well is strongly washed with TBS-T (TBS containing 0.05% Tween-20) buffer for 6 times and then phages bound to the well are detected by binding HRP (horseradish peroxidase)-bound anti-M13 antibody (New England Biolabs) (dilution, 1:4000 in TBS-T) for 1 hour at room temperature. After that, color reaction is carried out with HRP substrate suspension (TMB, Pierce). The color reaction is stopped by adding 2N H2SO4 and then absorbance is measure by the microplate reader (Bio-Rad, model 550) at 450 nm.

[7] = annexin V binding test of coated plate; conditions: his-tagged recombinant annexin V 20 μg/mL, 1 hour at room temperature
Method: For the preparation of a plate (or well) coated by phosphatidylserine or phosphatidylcholine, phosphatidylserine or phosphatidylcholine is dissolved in ethanol (300 μg/mL, 100 μL), and then the solution is placed and dried in Immulon 1B microtiter plate (Thermo, Milford, Mass., USA) for 6 hours in air. To prevent from non-specific binding, TBS (Tris-HCl 50 mM, pH7.4, NaCl 150 mM) containing 10 mg/mL of BSA (bovine serum albumin) is added to the solution and then blocking is performed for 1 hours at room temperature. The plates coated by phosphatidylserine or phosphatidylcholine are evaluated by annexin V binding test so as to use a coated plate.
To bind annexin V, his-tagged recombinant annexin V protein (20 μg/mL) is dissolved in TBS buffer containing 10 mg/mL of BSA and then the solution is placed ELISA plate coated by phosphatidylserine or phosphatidylcholine. After 1 hour of standing at room temperature, the plate is washed by TBS-T buffer for 3 times and the bound annexin V protein is reacted with mouse anti histidine IgG antibody (Santa Cruz Biotechnology) to which HRP is bound and then binding is tested by the reaction with TBM base.

Substance	phage titer of selected phage bound to apoptotic cells after peptide treatment [1]	binding of labeled peptide to apoptotic cells by FACS [2]	binding of labeled peptide to normal cells by FACS ([2]; normal H460 cell)	marking of apoptotic cells (fluorescent microscope) ([3]; apoptotic H460 cells)	binding site on apoptotic cells compared with annexin V ([3]; apoptotic H460 cells, photo composition / laser confocal microscope)	marking of normal cells (fluorescent microscope) [3]	ex vivo fluorescein signal from tumor tissue [4]	location of peptide fluorescent signal relative to TUNEL staining in tumor ([5]; TUNEL analyses of tumor tissue)	peptide observed in liver and lung tissue ([5]; control group organs, cryosection)	peptide observed in tumor region stained by CD31 ([5]; cryosection)	fluorescence by the peptide in kidney ([5]; cryosection, excreted peptide in the uresis path)	in vivo fluorescein signal from tumor tissue [4]	inhibition of phosphatidylserine binding of the selected phage clone [6]	phage titer of selected phage bound to apoptotic cells after annexin V pre-treatment ([1]; annexin V 10 μM, pre-cultured 30 minutes, H460)	annexin V binding to coated plate [7]
CLSYYPSYC [peptide of the present embodiment]	greatly decreased	certainly bound	not certainly bound	marking is occurred in both cases	bound to the same site	marking is not occurred	intensively monitored	observed mainly in the TUNEL stained region	not observed	a large amount	observed				
NSSVDK [control group peptide, reference compound]	no difference	not certainly bound		marking is occurred in annexin V case only			very weakly monitored or not monitored			not observed		very weakly monitored or not monitored			
annexin V: annexin V protein, phosphatidylserine-binding reference (his-tagged recombinant or Alexa fluor 594 labeled)				marking is occurred		marking is not occurred							inhibits	greatly decreased	certainly bound
fluorescein-labeled CLSYYPSYC (fluorescein-CLSYYPSYC; cysteine pairing not given here) [… peptide with fluorescein bonded at N-end]												intensively detected			
